Assay [1] has as its system human pre-adipocyte fibroblasts. Put plainly: Adipogenesis of human pre-adipocyte fibroblasts in adipogenic medium (Thy1 siRNA, SU6656). The assay is classed as cell-based. Here is the method:
3T3-L1 cells or primary fibroblasts were cultured to confluence before addition of the adipogenic medium. Cells were treated with an adipogenic medium containing 0.5 mM 3-isobutyl-1-methylxanthine, 0.25 μM dexamethasone, and 1 μg/ml insulin (all three from Sigma Aldrich, St. Louis, Mo.), 2 μM rosiglitazone (Cayman) for two days. After two days medium was replaced with dexamethasone, insulin and rosiglitazone for another 5-8 days. Media was replaced every 2 days through the duration of the experiment. After differentiation cells were analyzed for lipid accumulation and adipogenesis by Oil-red-O (Sigma Aldrich, St. Louis, Mo.) staining and AdipoRed (Cayman) staining as described previously. Lehmann et al., “Novel Anti-adipogenic Activity Produced by Human Fibroblasts,” Am J Physiol Cell Physiol 299(3):C672-81 (2010), which is hereby incorporated by reference in its entirety.
5-8×10^4 or 1×10^5 cells were seeded into 24 well or 6 well cell culture plates (Corning) and subsequently were transiently transfected with 50-200 nM of siRNA (Ambion) using Lipofectamine 2000 (Invitrogen) as the transfection reagent and following the manufacture's protocol. The cells were incubated with siRNA specific for Thy1 specific or a corresponding non-specific control siRNA for 3-4 days before the cells were subjected to adipogenic differentiation experiments as described above. At the start of the adipogenic differentiation experiment, the cells were again transiently transfected with 100 nM Thy1-specific or control siRNA.
Thy1 specific or control siRNA was introduced into human pre-adipocyte fibroblasts using Lipofectamine 2000. Fibroblasts were then treated with an adipogenic medium and adipogenesis was measured by visual inspection of lipid droplets, FABP4 expression and lipid accumulation. Total Thy1 protein expression and Thy1 surface expression were analyzed by western blot and flow cytometry, respectively. […] Cell images were captured to show the presence of lipid droplets in fibroblasts treated with adipogenic medium, and are shown in FIG. 12B. […]

Assay [2] has as its system Thy1. Briefly: Thy1 expression in hMSCs treated with obesogens (qPCR, flow cytometry). The assay is classed as cell-based, human. Here is the method: In particular, hMSCs were induced to adipocytes with a rosiglitazone cocktail (adipogenic) or cocktail containing the putative obesogens BPA (1 μM), TBBPA (5 μM), or TBT (100 nM). […] The obesogen doses selected are based on literature and represent concentrations proposed to be found in human tissues. Roos et al., “Circulating Levels of Persistent Organic Pollutants in Relation to Visceral and Subcutaneous Adipose Tissue by Abdominal MRI,” Obesity (Silver Spring) (2012) and Antizar-Ladislao, B, “Environmental Levels, Toxicity and Human Exposure to Tributyltin (TBT)-Contaminated Marine Environment. A Review,” Environ Int 34(2):292-308 (2008), each of which is hereby incorporated by reference in its entirety. As noted above, the cells were cultured in adipogenic medium containing rosiglitazone, a PPARγ ligand that promotes adipogenesis and obesity, and the noted putative obesogens.
qPCR analysis of the mRNA levels of Thy1 and the adipogenic marker FABP4 was conducted. […] The same samples as in FIG. 4A were used to measure Thy1 mRNA levels by qPCR. […] Thy1 and FABP4 levels were normalized to TBP mRNA levels (control gene).
hMSCs were also treated with vehicle (DMSO), 20 uM TBBPA, or 10 uM rosiglitazone for 72 hrs, harvested and stained with a fluorescent anti-Thy1 antibody for analysis of Thy1 by flow cytometry.
In general terms: In qPCR the cycle at which signal appears reflects the starting amount.

Assay [3] has as its system Thy1. Put plainly: Thy1 expression in mouse MSCs cultured with obesogens (flow cytometry, western blotting). The assay is classed as cell-based. Conditions: 96 hrs; for Thy1, western blotting: concentrations in figure. As to the method:
Mouse MSCs were cultured with obesogens for 96 hrs, harvested, and analyzed for Thy1 expression by flow cytometry or western blotting.

Assay [4] can be described thus: Diet induced obesity in mice on a high fat diet, soluble Thy1 injected. The assay is classed as in vivo, mouse. Conditions: high fat diet (60% kcals from fat), minimum of 8 weeks, 0.2 or 0.4 mg/kg intravenous or subcutaneous. The source says:
Milligram quantities of soluble Thy1 will be injected into mice receiving a high fat (60% kcals from fat) diet.
Mice fed a high fat diet and treated as in Table 2 will be weighed weekly for the duration of the experiment (minimum of 8 weeks). Following the study, mice will be sacked for fat depot quantification, histologic analysis and fat tissue will be analyzed by western blot for the adipogenic markers FABP4, C/EBPα, Fyn, and phospho-Fyn. Serum samples will also be acquired for analysis of Thy1, adiponectin and glucose levels.

Assay [5] has as its system Fyn. Briefly: Western blot for phospho-STAT5 (Fyn mediated phosphorylation). The note with it: Thy1 expression. The assay is classed as cell-based, human. Background: Immunoblotting shows a protein as a band on a membrane.
Assay [6] has as its system Erk1/2. Briefly: Western blot for phospho-Erk1/2 in 3T3-L1 cells. The assay is classed as cell-based, mouse. Conditions: Thy1 expressed in 3T3-L1 cells. As to the method:
3T3-L1 cells infected with a control or Thy1-expressing lentivirus (LV) were treated with 10 nM insulin-like growth factor (IGF)-1 for 0, 5, or 10 minutes. Cells were treated as described, then whole cell lysates were harvested and analyzed by western blot for phospho-Erk1/2 and GAPDH expression (FIG. 18A). Western blot images were analyzed by densitometry and phospho-Erk1/2 levels were normalized to GAPDH to adjust for total protein variations (FIG. 18B).
PPARγ phosphorylation at serine 82 (S82) inhibits ligand binding and severely reduces its ability to promote adipogenesis. […] To investigate if Thy1 regulates the Erk pathway, Thy1 was expressed in 3T3-L1 cells and the activity of Erk1/2 (which corresponds to phospho-Erk) was monitored by western blotting (see FIGS. 18A and 18B). […]

Assay [7] has as its system PPARγ. Briefly: Western blot for PPARγ protein in 3T3-L1 cells. The note with it: expression of Thy1 in 3T3-L1 preadipocyte fibroblasts. The assay is classed as cell-based, mouse. The text has this: Orbital fibroblasts from two individual human donors were separated into Thy1^− and Thy1+ subsets. Cells were harvested and analyzed by western blotting for PPARγ and actin (loading control). […] In addition, 3T3-L1 cells were transduced with control or human Thy1− encoding lentiviral (Lv) particles.
To test how Thy1 affects PPARγ, it was first considered whether Thy1 would down-regulate the expression of PPARγ protein. However, two different strains of human TED orbital fibroblasts, sorted into Thy1+ or Thy1^− subsets, expressed similar levels of PPARγ (FIG. 15A). […] Thus, other ways that Thy1 could influence the function of PPARγ were considered, as described below.

The subject of assay [8] is human stem cells. Briefly: Adipogenesis of human stem cells / preadipocytes given a proadipogenic cocktail. The assay is classed as cell-based. The source says:
Thy1 (or Thy-1, also termed CD90) is an N-glycosylated, glycophosphatidylinositol (GPI)-anchored membrane protein that was originally identified as a surface marker on mouse T cells and thymocytes. Thy1 is a surface marker of unknown function that is expressed on some stem cells and some fibroblasts. While Thy1 was discovered more than 35 years ago, its molecular function remains a mystery. The inventors of the present application have discovered that Thy1 is more than a surface marker; rather, it can control the fate of cells by preventing adipogenesis. […] Similarly, deliberate genetic over-expression of Thy1 has the same effect, preventing cells from becoming adipocytes.

Where [9] appears, read: induced to differentiate into adipocytes.
The mark [10] stands for this setting: human and mouse mesenchymal stem cells.

On to `CN(C)S(=O)(=O)c1ccc2c(c1)/C(=C/c1cc3c([nH]1)CCCC3)C(=O)N2` [SU6656], for which, in assay [1] (Thy1 siRNA followed by adipocyte induction), the “adipogenic effect of Thy1 siRNA (FABP4 mRNA, lipid accumulation)” value was “ablated”. In assay [1] (setting [9]), the “FABP4 protein expression, % of control, western blot” value came out at 30% and the “lipid accumulation, % of control” value is given as 55%.
For `CC(C)(c1cc(Br)c(O)c(Br)c1)c1cc(Br)c(O)c(Br)c1` [TBBPA, tetrabromobisphenol-A], the Thy1 expression result in assay [2] (MSCs treated with obesogens) is listed as “reduced”; in assay [2] (setting [10]), “dramatically reduced”. Moreover, in assay [2] (hMSCs, 20 uM, 72 hrs, vs vehicle (DMSO)), the “surface expression of Thy1, flow cytometry” value is “decreased”. For the same molecule, in assay [3] (5 μM), the “Thy1 surface expression, Mean Fluorescent Intensity” value is listed as “dramatic reduction”. For the same molecule, in assay [3], the “Thy1, western blotting” value was “reduction”.
As for `CCC[CH2][Sn]([CH2]CCC)[CH2]CCC` [TBT, tributlytin], the Thy1 expression result is “reduced” in assay [2] (MSCs treated with obesogens) and “dramatically reduced” in assay [2] (setting [10]). Besides, in assay [3], the “Thy1, western blotting” value is reported as “reduction”.
“Thy1: N-glycosylated, GPI-anchored membrane protein; human Thy1 SEQ ID NO:1; soluble form lacks the GPI anchor”: in assay [4], the fat accumulation result was “significantly less fat accumulation” and the weight gain result was “significantly less weight”. For the same molecule, the “phospho-STAT5 levels, western blotting” value in assay [5] is given as “reduces”. Besides, the “increase of Erk1/2 phosphorylation compared to control 3T3-L1 cells” value in assay [6] was “greater than 3 fold”. The PPARγ protein levels result in assay [7] was “did not alter”. For the same molecule, the “human stem cell adipogenesis” value in assay [8] is “blunts”. Moreover, the becoming fat cells result in assay [8] (human and mouse preadipocytes and primary human stem cells, proadipogenic cocktail containing a PPARγ ligand) is given as “prevent”.

(Values after patent publication US9694050B2, “THY1 (CD90) as a novel therapy to control adipose tissue accumulation” (University of Rochester, priority 2012, dated 2017).)
